From USRE42700E1, “Induction of apoptosis in cancer cells” (Sanford-Burnham Medical Research Institute, priority 2001, dated 2011)
Peptide text beside a SMILES is read from it. * marks the point of attachment. Cbz = O=C(OCc1ccccc1)*; CH2F = FC*

Columns and labels:
[1] = test system: human acute megakaryocytic leukemia cell line M07e; assay: M07e cell growth / proliferation; type: cell-based; details: varying concentrations over time
Protocol: (§1) Cell Growth: IL-3-transfected M07e cells have been described by Thacker, D. J., et al., Leukemia 8: 871-877 (1994). Cells were grown in RPMI supplemented with 5 percent heat-inactivated fetal bovine serum (FBS) and 25 μg/ml gentamycin in a […], 5% CO2, and 100% humidity environment. Leukemic cells were obtained from patients who met the criteria for the diagnosis of AML or CML in blast crisis (see Table 1). Studies were approved by the Wayne State University Institutional Review Board. Informed consent was obtained from all patients. Leukemic blasts from patients were isolated using Ficoll hypaque. Cells at the interface between plasma and red blood cells were diluted with sterile PBS, then layered over Ficoll hypaque (1.077 density), and the leukemic cells collected at the interface. The sample to be studied represented greater than 90% blasts. The patient leukemia samples were grown in RPMI medium supplemented with 10% FBS, gentamycin (25 μg/ml), IL-3 (20 ng/ml), SCF (25 ng/ml), GM-CSF (20 ng/ml) and G-CSF (20 ng/ml). Cell growth was assessed using a cell proliferation kit.

[2] = test system: human acute megakaryocytic leukemia cell line M07e; assay: M07e apoptosis quantification; type: cell-based
Protocol: (§2) Apoptosis Quantification: Staining of apoptotic cells was performed as described by Gavreli, Y., et al., (J. Cell. Biol. 119: 493-501 (1992)) and Whitacre, C. M., et al., (Cancer Res. 55: 3697-3701 (1995)). After 3-Cl-AHPC treatment, cells were harvested, washed with PBS and resuspended at 1×10^6 cells/ml. Cell suspensions (50 μl) were stained with […] of acridine orange solution ([…]) in PBS in the dark. Cells displaying fragmented DNA were detected using a fluorescent microscope. Apoptotic cells were also detected using a kit. Cells that incorporated fluorescein labeled deoxyuridine triphosphate were detected using flow cytometry.

[3] = test system: leukemic blasts from patients (AML or CML in blast crisis); assay: apoptosis in primary cultures of patient leukemic blasts; type: cell-based, human
Protocol: as §1, §2

[4] = test system: Human Breast Cancer Cells; assay: apoptosis induction / cell death in breast cancer cells (all lines); type: cell-based; details: 10 μM
[5] = test system: acute promyelocytic leukemia (APL); details: cited from earlier work
[6] = test system: M07e or patient leukemia cells; assay: effect of kinase inhibitors on 3-Cl-AHPC-mediated apoptosis; type: cell-based, human; details: at concentrations inhibiting p38 or ERK activation
Protocol: After 3-Cl-AHPC treatment, cells were harvested, washed with PBS and resuspended at 1×10^6 cells/ml. Cell suspensions (50 μl) were stained with 5 ml of acridine orange solution (100 mg/ml) in PBS in the dark. Cells displaying fragmented DNA were detected using a fluorescent microscope. Apoptotic cells were also detected using a kit. Cells that incorporated fluorescein labeled deoxyuridine triphosphate were detected using flow cytometry.

[7] = test system: mouse mammary adenocarcinoma 16/C; assay: mouse mammary adenocarcinoma 16/C in syngeneic female C3H mice
Protocol: The ability of 3-Cl-AHPC to inhibit the in vivo growth of breast carcinoma cells was tested using syngeneic mouse mammary and human breast adenocarcinoma SCID xenograft models.

AML cells = assay: growth of AML cells in SCID mice; type: in vivo, mouse
[8] = test system: ALL cells obtained from patients; details: background section; cited from earlier work
RXRs = details: cited from earlier work
RAR subtype α = RAR subtype α (Homo sapiens, UniProt P10276); details: cited from earlier work
Chain of RAR subtype α (P10276 whole entry): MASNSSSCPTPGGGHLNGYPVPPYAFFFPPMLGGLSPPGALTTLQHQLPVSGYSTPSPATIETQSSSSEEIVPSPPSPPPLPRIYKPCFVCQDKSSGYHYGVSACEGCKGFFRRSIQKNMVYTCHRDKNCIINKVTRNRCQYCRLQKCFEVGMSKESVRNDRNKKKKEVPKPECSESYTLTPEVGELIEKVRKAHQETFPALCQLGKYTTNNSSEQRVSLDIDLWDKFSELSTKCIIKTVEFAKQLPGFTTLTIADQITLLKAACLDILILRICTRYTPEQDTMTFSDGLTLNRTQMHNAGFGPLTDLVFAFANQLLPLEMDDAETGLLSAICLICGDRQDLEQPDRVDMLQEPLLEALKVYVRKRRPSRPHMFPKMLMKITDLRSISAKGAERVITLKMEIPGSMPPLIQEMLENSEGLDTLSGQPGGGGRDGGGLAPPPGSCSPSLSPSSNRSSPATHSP

RARβ = RARβ (Homo sapiens, UniProt P10826); details: 1 μM; cited from earlier work
Chain of RARβ (P10826 whole entry, species assumed): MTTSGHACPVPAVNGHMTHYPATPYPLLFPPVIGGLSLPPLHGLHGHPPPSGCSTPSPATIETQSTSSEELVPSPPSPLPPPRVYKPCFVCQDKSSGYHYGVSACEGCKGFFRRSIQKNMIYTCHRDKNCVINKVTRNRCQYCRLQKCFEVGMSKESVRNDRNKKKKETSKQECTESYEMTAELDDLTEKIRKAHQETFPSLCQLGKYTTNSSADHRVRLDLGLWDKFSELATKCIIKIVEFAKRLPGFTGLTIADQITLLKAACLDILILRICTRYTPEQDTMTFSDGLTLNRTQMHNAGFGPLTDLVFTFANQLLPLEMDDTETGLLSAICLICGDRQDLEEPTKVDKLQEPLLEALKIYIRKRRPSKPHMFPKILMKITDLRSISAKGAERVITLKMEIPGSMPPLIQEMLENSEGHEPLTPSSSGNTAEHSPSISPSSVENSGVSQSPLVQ

RARγ = RARγ (Homo sapiens, UniProt P13631); details: 1 μM; cited from earlier work
Chain of RARγ (P13631 whole entry, species assumed): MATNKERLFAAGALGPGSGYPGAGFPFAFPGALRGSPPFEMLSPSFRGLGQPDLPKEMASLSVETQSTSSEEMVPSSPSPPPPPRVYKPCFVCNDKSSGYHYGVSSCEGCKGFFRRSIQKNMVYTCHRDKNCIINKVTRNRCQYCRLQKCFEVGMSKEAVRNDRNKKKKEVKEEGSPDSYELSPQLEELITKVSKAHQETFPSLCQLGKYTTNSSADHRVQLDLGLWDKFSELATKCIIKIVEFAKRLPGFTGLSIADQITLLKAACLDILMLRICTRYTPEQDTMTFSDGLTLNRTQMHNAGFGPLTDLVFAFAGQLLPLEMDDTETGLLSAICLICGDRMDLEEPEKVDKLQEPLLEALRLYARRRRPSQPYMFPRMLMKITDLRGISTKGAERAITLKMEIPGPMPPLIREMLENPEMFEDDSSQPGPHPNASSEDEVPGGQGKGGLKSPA

[9] = test system: human leukemia cell line HL-60R; details: cited from earlier work
cell line K562 = details: cited from earlier work
[10] = test system: p38 and JNK kinases (HL-60R human leukemia cell line); details: cited from earlier work
cell line ALL-REH = details: ALL-REH cells; cited from earlier work
Bcl-XL in leukemic cells = assay: Bcl-XL cleavage by Western blot; type: cell-based, human; details: 50 μM inhibitor with 1 μM 3-Cl-AHPC, 24 hours
Protocol: (§3) Western Blots: Western blots were performed according to the protocol of Sheikh, M. S., et al., (Oncogene, 9: 3407-3415 (1994)). Logarithmically growing cells were treated with 3-Cl-AHPC for various times and cells were harvested and lysed in Laemmli lysis buffer (0.5 M Tris-HCl, pH 6.8, 0.002M EDTA, 10% glycerol, 10% sodium dodecyl sulfate (SDS), and 5% β-mercaptoethanol). Protein lysates (50 μg/lane) were electrophoresed on 12% SDS-polyacrylamide gels and transferred to nitrocellulose membranes. Membranes were blocked with 5% nonfat dried milk in PBS/0.5% Tween 20 and then incubated with the appropriate antibodies. Horseradish peroxidase-conjugated rabbit anti-mouse IgG was used as the secondary antibody, and bands were developed using the Amersham ECL non-radioactive method.

[11] = test system: ERK, p38 and JNK kinases in M07e and patient leukemic cells; assay: activation of MAPK pathways (phospho-p38, phospho-ERK, phospho-JNK Western blots); type: cell-based, human; details: 50 μM inhibitor
Protocol: as §3

[12] = total dose 133 mg/kg, days 1, 2, 5-9
[13] = total dose 150 mg/kg, days 1, 2, 7-9

Work on Cc1cc(/C=C/C(=O)O)cc(C)c1-c1ccc(O)c(C23CC4CC(CC(C4)C2)C3)c1 [Example 4, (E)-4-[3-(1-Adamantyl)-4-hydroxyphenyl]-3,5-dimethylcinnamic acid] yielded a melting point of 127 to 129 °C.

For CC1=C(/C=C/C(C)=C/C=C/C(C)=C/C(=O)O)C(C)(C)CCC1 [tRA, trans-retinoic acid, reference compound], the inhibition of proliferation [1] was “did not significantly inhibit M07e proliferation”, the inhibition of proliferation [2] was “did not significantly inhibit M07e proliferation (FIG. 2C) or induce apoptosis” and the induction of apoptosis ([3]; 1 μM, 11 primary cultures) was “did not induce apoptosis”. The “proliferation and apoptosis of primary human AML cultures (FIG. 13)” value ([3]; non-APL AML samples) was “had no effect”, the “killing of breast carcinoma cells” value [4] was “did not kill the cells” and the “patients achieving a complete remission” value [5] was 90%.

In the case of Cc1cc(/C=C/C(=O)O)ccc1-c1ccc(O)c(C23CC4CC(CC(C4)C2)C3)c1 [Example 3, (E)-4-[3-(1-Adamantyl)-4-hydroxyphenyl]-3-methylcinnamic acid], the melting point is reported as 232 to 234 °C.

With COc1cccc(-c2cc(=O)c3ccccc3o2)c1N [PD98059] the “effect on 3-Cl-AHPC-mediated apoptosis” value [6] was “did not inhibit or enhance 3-Cl-AHPC-mediated apoptosis”.

With O=C(O)/C=C/c1ccc(-c2ccc(O)c(C34CC5CC(CC(C5)C3)C4)c2)cc1Cl [Example 2, (E)-4-[3-(1-Adamantyl)-4-hydroxyphenyl]-2-chlorocinnamic acid] the melting point was 276 to 278 °C.

With O=C(O)c1ccc2cc(-c3ccc(O)c(C45CC6CC(CC(C6)C4)C5)c3)ccc2c1 [AHPN, 6-[3-(1-adamantyl)-4-hydroxyphenyl]-2-naphthalenecarboxylic acid] the “% body wt. loss” value ([7]; total dose 99 mg/kg, days 1-9) was −4%, the Drug deaths ([7]; total dose 99 mg/kg, days 1-9) was 0/5 and the T/C % ([7]; total dose 99 mg/kg, days 1-9) was 47%. For the same compound, the “% body wt. loss” value [7, 12] was −11%, the Drug deaths [7, 12] was 0/5 and the Log cell kill [7, 12] was 0.49. For the same compound, the T/C % [7, 12] was 39%, the “% body wt. loss” value [7, 13] was −21% and the Drug deaths [7, 13] was 1/5. The Log cell kill [7, 13] was 0.63, the T/C % [7, 13] was 30% and the “treated mice tumor-free more than 150 days (considered cured)” value (AML cells; five treated mice) was “one out of the five”. For the same compound, the Tumor growth inhibition (AML cells; treated SCID mice) was 85.7%, the growth delay (AML cells; treated SCID mice) was 21 days and the log cell kill (AML cells; treated SCID mice) was 2.1. For the same compound, the “apoptosis of ALL cells obtained from patients” value [8] was “induced apoptosis”, the “binding to the RXRs” value (RXRs) was “does not bind” and the “binding and transactivation of RAR subtype α” value (RAR subtype α) was “extremely poor binder and transactivator”. For the same compound, the “binding and transactivation of RARβ” value (RARβ) was “binds and transactivates”, the “binding and transactivation of RARγ” value (RARγ) was “binds and transactivates” and the “apoptosis of HL-60R cells (lack functional RARs)” value [9] was “results in apoptosis”. The “apoptosis of K562 cells (resistant to tRA)” value (cell line K562) was “results in apoptosis”, the “p38 and JNK activation” value ([10]; HL-60R human leukemia cell line) was “p38 and JNK activation” and the “time to activation of the p38 and JNK kinases” value [10] was at most 1 h. The “caspase 3 activity” value (cell line ALL-REH) was “stimulation of caspase 3 activity”.

For COC(=O)C[C@H](NC(=O)[C@H](C)NC(=O)[C@@H](NC(=O)OCc1ccccc1)C(C)C)C(=O)CF [ZVAD-fmk] (Cbz-Val-Ala-Asp(OMe)-CH2F), the “effect on 3-Cl-AHPC-mediated Bcl-XL cleavage” value (Bcl-XL in leukemic cells) was “inhibited Bcl-XL cleavage”, the “effect on 3-Cl-AHPC activation of JNK” value [11] was “not inhibited” and the “effect on 3-Cl-AHPC activation of p38 and ERK” value [11] was “prevent their activation by 3-Cl-AHPC”.
